Source: US20130085283A1, “GERANYLGERANYLACETONE DERIVATIVES” (Coyote Pharmaceuticals, Inc., priority 2011, published 2013)

Experiments:
HSP70 [1] = test: Expression of heat shock proteins in vivo, rat brain mRNA by qPCR; settings: time 0 = 100%
Protocol: (§1) GGA trans isomer in 5% Gum Arabic as an aqueous suspension formulation were orally dosed to Sprague-Dawley rats at 12 mg/Kg body weight. Rat brain tissues were extracted in various time points after the oral dosing. mRNA were prepared from those brain tissues extracted, and cDNA were produced. qPCR analysis was done by using primers specifically designed to detect mRNA of HSPs. GAPDH gene was used as a control to compare quantities of HSP cDNAs amplified by qPCR analysis. Amounts of cDNA quantified at time 0 are normalized as 100%, and relative amounts of cDNA compared with those at various time points are depicted in the tables below: […]

HSP27 = test: as above; settings: time 0 = 100%
Protocol: as §1

HSP90 = test: as above; settings: time 0 = 100%
Protocol: as §1

HSP60 = test: as above; settings: time 0 = 100%
Protocol: as §1

HSP70 [2] = test: HSP70 protein in rat brain lysates by Western blotting after oral dosing; type: in vivo
Protocol: The compounds tabulated below or vehicle controls were orally dosed at 12 mg/kg to Sprague-Dawley rats. Rat brain tissues were extracted in various time points after the oral dosing. Lysates were prepared from the harvested brain tissues. Western blotting analysis was done for the same protein amounts of these lysates, and western signals of HSP70 were detected by chemiluminescence and quantified in parallel with comparisons of those detected at time 0 hr. Western signals at time 0 hr were normalized as 100.

GAPDH = test: Expression of heat shock proteins in vivo, rat brain mRNA by qPCR (control gene); settings: time 0 = 100%
Protocol: as §1

[3] = 12 hr after oral 12 mg/Kg in 5% Gum Arabic
[4] = 24 hr after oral 12 mg/Kg in 5% Gum Arabic
[5] = 48 hr after oral 12 mg/Kg in 5% Gum Arabic
[6] = 96 hr after oral 12 mg/Kg in 5% Gum Arabic
[7] = 12 hr after oral 12 mg/kg, time 0 hr = 100, Vehicle 102%
[8] = 48 hr after oral 12 mg/kg, time 0 hr = 100, Vehicle 105%
[9] = 96 hr after oral 12 mg/kg, time 0 hr = 100, Vehicle 99%

CC(=O)CC/C=C(\C)CC/C=C(\C)CC/C=C(\C)CCC=C(C)C (single isomer, unassigned) [GGA trans isomer, 5E,9E,13E-Geranylgeranyl acetone]
HSP70 relative amount of cDNA (HSP70 [1]; [3]): 118.46% | HSP70 relative amount of cDNA (HSP70 [1]; [4]): 107.69% | HSP70 relative amount of cDNA (HSP70 [1]; [5]): 106.15% | HSP70 relative amount of cDNA (HSP70 [1]; [6]): 103.85% | HSP27 relative amount of cDNA (HSP27; [3]): 115.38% | HSP27 relative amount of cDNA (HSP27; [4]): 114.61% | HSP27 relative amount of cDNA (HSP27; [5]): 116.15% | HSP27 relative amount of cDNA (HSP27; [6]): 103.84% | HSP90 relative amount of cDNA (HSP90; [3]): 107.69% | HSP90 relative amount of cDNA (HSP90; [4]): 106.92% | HSP90 relative amount of cDNA (HSP90; [5]): 105.38% | HSP90 relative amount of cDNA (HSP90; [6]): 100.77% | HSP60 relative amount of cDNA (HSP60; [3]): 113.84% | HSP60 relative amount of cDNA (HSP60; [4]): 130.00% | HSP60 relative amount of cDNA (HSP60; [5]): 116.92% | HSP60 relative amount of cDNA (HSP60; [6]): 103.85% | Western signal of HSP70 in brain (HSP70 [2]; [7]): 115% | Western signal of HSP70 in brain (HSP70 [2]; [8]): 115% | Western signal of HSP70 in brain (HSP70 [2]; [9]): 114% | GAPDH relative amount of cDNA (control gene) (GAPDH; [3]): 96.93% | GAPDH relative amount of cDNA (control gene) (GAPDH; [4]): 99.24% | GAPDH relative amount of cDNA (control gene) (GAPDH; [5]): 100% | GAPDH relative amount of cDNA (control gene) (GAPDH; [6]): 102.31%

CC(C)=CCC/C(C)=C/CC/C(C)=C/CC/C(C)=C/CC1CCCCC1=O (centres unmarked) [drawing 180]
Western signal of HSP70 in brain (HSP70 [2]; [7]): 116% | Western signal of HSP70 in brain (HSP70 [2]; [8]): 114% | Western signal of HSP70 in brain (HSP70 [2]; [9]): 97%
